Experimental data taken from article PMC4844587, “PET imaging of cyclooxygenase-2 (COX-2) in a pre-clinical colorectal cancer model” (EJNMMI Research, 2016).

Assays:
Lipophilicity = type: physicochemical
HCA-7 tumors [1] = assay: Biodistribution in HCA-7 tumor-bearing mice; details: 60 min p.i.; for Biodistribution: Tumor/blood / Biodistribution: Tumor/muscle: ratio, n = 4; for Blocking of [^18F]Pyricoxib tumor uptake (biodistribution studies): celecoxib 100 mg/kg (2 mg per mouse) i.p., HCA-7 tumor
Description: Animals were sacrificed at 60 min p.i. The organs and tissues of interest were rapidly excised, weighed, and the radioactivity was determined using the automatic gamma counter (see above). Radioactivity in the selected tissues and organs was calculated as percent injected dose per gram tissue (%ID/g). Data were analyzed as means ± standard deviation (mean ± SD) for n = 4 animals.

[2] = Radiometabolite analysis and blood compartment distribution; type: in vivo, NIH-III nude mice
Description: Blood samples from the tail vein (20–40 μL) were collected at 5, 30, 60, and 120 min p.i. Plasma was separated by centrifugation (5 min, 13,000×g) followed by plasma protein precipitation using ice-cold methanol (two parts per one part plasma) and centrifugation (5 min, 13,000×g). Supernatants were analyzed by radio thin-layer chromatography (radio-TLC). TLCs were developed in 1 % MeOH/CH2Cl2 and analyzed using a BAS-5000 reader.

HCT-116 tumors = assay: PET imaging of HCT-116 tumor-bearing mice; type: in vivo, NIH-III nude mice; details: 2 h p.i., n = 3
Description: Positron emission tomography (PET) and biodistribution experiments were carried out in HCA-7 and HCT-116 tumor-bearing NIH-III nude mice (Charles River Laboratories, Quebec, Canada). Female NIH-III nude mice were housed under standard conditions with free access to standard food and tap water. HCA-7 and HCT-116 cells (5 × 10^6 cells in 100 μL of PBS) were injected into the upper left flank of female NIH-III nude mice (20–24 g). After 14 to 21 days post-inoculation, HCA-7 and HCT-116 tumors reached sizes of approximately 0.6–0.9 cm^3 (0.78 ± 0.15 g, as determined during biodistribution experiments) which were suitable for all in vivo experiments.
General anesthesia of HCA-7 tumor-bearing mice was induced with inhalation of isoflurane in 40 % oxygen/60 % nitrogen (gas flow = 1 mL/min), and mice were subsequently fixed in prone position. The body temperature was kept constant at 37 °C for the entire experiment. […] PET data was collected dynamically over 60 min for up to 4 h using an Inveon® PET/CT scanner (Siemens Preclinical Solutions, Knoxville, TN, USA). […] Mean standardized uptake values [SUVmean = (activity/mL tissue)/(injected activity/body weight), mL/g] were calculated for each region of interest (ROI) with a threshold defined at 50 % of radioactivity uptake. […] All semi-quantified PET data are presented as means ± SEM.

HCA-7 tumors [3] = assay: Dynamic PET imaging of HCA-7 tumor-bearing mice
Description: Female NIH-III nude mice were housed under standard conditions with free access to standard food and tap water. HCA-7 and HCT-116 cells (5 × 10^6 cells in 100 μL of PBS) were injected into the upper left flank of female NIH-III nude mice (20–24 g). After 14 to 21 days post-inoculation, HCA-7 and HCT-116 tumors reached sizes of approximately 0.6–0.9 cm^3 (0.78 ± 0.15 g, as determined during biodistribution experiments) which were suitable for all in vivo experiments.
General anesthesia of HCA-7 tumor-bearing mice was induced with inhalation of isoflurane in 40 % oxygen/60 % nitrogen (gas flow = 1 mL/min), and mice were subsequently fixed in prone position. The body temperature was kept constant at 37 °C for the entire experiment. […] PET data was collected dynamically over 60 min for up to 4 h using an Inveon® PET/CT scanner (Siemens Preclinical Solutions, Knoxville, TN, USA). For the initial 4-h dynamic PET experiments, 3.5 % HSA was added to the final injection solution, while all other experiments were done without addition of carrier protein HSA. Mean standardized uptake values [SUVmean = (activity/mL tissue)/(injected activity/body weight), mL/g] were calculated for each region of interest (ROI) with a threshold defined at 50 % of radioactivity uptake. The time-activity curves (TACs) were generated from dynamic PET scans. All semi-quantified PET data are presented as means ± SEM.
A transmission scan for attenuation correction was not acquired. The radioactivity of the injection solution in a 0.5 mL syringe was determined with a dose calibrator (Atomlab^TM 300, Biodex Medical Systems, New York, U.S.A.). After the PET emission scan was started the radioactivity was injected with a delay of approximately 15 s. Data acquisition continued for 60 min in 3D list mode. The dynamic list mode data were sorted into sinograms with up to 54 time frames (10x2, 8x5, 6x10, 6x20, 8x60, 10x120, 6x300 s). The frames were reconstructed using maximum a posteriori (MAP) reconstruction modes. The pixel size was 0.085x0.085x0.12 cm, and the resolution in the center field of view was 1.8 mm. Correction for partial volume effects was not performed. The image files were further processed using the ROVER v2.0.51 software (ABX GmbH, Radeberg, Germany). Masks defining 3D regions of interest (ROI) were set and the ROIs were defined by thresholding.
ROIs covered all visible tumor mass of the subcutaneous tumors, and the thresholds were defined by 50% of the maximum radioactivity uptake level for HCA-7 tumor in each animal.

[4] = test system: carbonic anhydrase (CA) enzyme family; details: cited from earlier work
COX-2 = details: read-out: COX-2 inhibition IC50; cited from earlier work
[5] = + 2 mg celecoxib i.p. 60 min prior

Description for HCA-7 cells: Blocking experiments were performed at 60 min. Radiotracer uptake was stopped by the addition of 1 mL of ice-cold PBS. Then, cells were washed two times with PBS and lysed in 0.4 mL of radioimmunoprecipitation assay buffer (RIPA buffer). Radioactivity of cell lysates was determined with a WIZARD2 Automatic gamma counter (Perkin Elmer; Waltham, MA, USA). Total protein concentration in the samples was determined by the bicinchoninic acid method (BCA; Pierce, Thermo Scientific 23227) using bovine serum albumin (800, 600, 400, 300, 200, 100, 50 μg/mL, blank) as protein standard. Cell uptake data are expressed as percent of measured radioactivity per 1 mg protein (%radioactivity/mg protein).

## CS(=O)(=O)c1ccc(-c2cc(C(F)(F)F)nc(NCc3ccc([18F])cc3)n2)cc1 [[^18F]Pyricoxib, N-(4-[^18F]fluorobenzyl)-4-[4-(methylsulfonyl)phenyl]-6-(trifluoro-methyl)pyrimidin-2-amine]
Lipophilicity
  logP: 3.37
HCA-7 tumors [1]; control, n = 4, mean ± SD
  Biodistribution: Blood: 0.65 ± 0.12 %ID/g
  Biodistribution: Bone: 0.67 ± 0.19 %ID/g
  Biodistribution: Brain: 1.74 ± 0.51 %ID/g
  Biodistribution: Duodenum: 4.59 ± 0.73 %ID/g
  Biodistribution: Fat: 12.67 ± 5.45 %ID/g
  Biodistribution: HCA-7 tumor: 2.12 ± 0.53 %ID/g
  Biodistribution: Heart: 2.52 ± 0.54 %ID/g
  Biodistribution: Intestine (large): 4.21 ± 1.74 %ID/g
  Biodistribution: Intestine (small): 8.08 ± 2.33 %ID/g
  Biodistribution: Kidneys: 4.38 ± 1.01 %ID/g
  Biodistribution: Liver: 17.13 ± 1.22 %ID/g
  Biodistribution: Lung: 3.75 ± 0.66 %ID/g
  Biodistribution: Muscle: 1.42 ± 0.54 %ID/g
  Biodistribution: Ovaries: 8.22 ± 1.27 %ID/g
  Biodistribution: Pancreas: 3.92 ± 1.39 %ID/g
  Biodistribution: Spleen: 1.24 ± 0.33 %ID/g
  Biodistribution: Stomach: 1.08 ± 0.29 %ID/g
HCA-7 tumors [1]; [5]
  Biodistribution: Tumor/blood: 1.09 ± 0.41
  Biodistribution: Tumor/muscle: 0.70 ± 0.19
HCA-7 tumors [1]; control
  Biodistribution: Tumor/blood: 3.39 ± 0.55
  Biodistribution: Tumor/muscle: 1.81 ± 1.04
[2]; 5 min
  Blood compartment distribution: blood cells: 68%
  Blood compartment distribution: plasma proteins: 2%
  Blood compartment distribution: plasma supernatant: 30%
[2]; 5 min p.i.
  Detectable radioactivity in plasma fraction: 30%
[2]; 30 min
  Blood compartment distribution: blood cells: 54%
  Blood compartment distribution: plasma proteins: 4%
  Blood compartment distribution: plasma supernatant: 42%
[2]; 60 min
  Blood compartment distribution: blood cells: 43%
  Blood compartment distribution: plasma proteins: 7%
  Blood compartment distribution: plasma supernatant: 50%
[2]; 2 h p.i.
  Detectable radioactivity in plasma fraction: 50%
[2]; blood, 5 min p.i., mice
  Percentage of intact [^18F]Pyricoxib: 98%
HCT-116 tumors
  SUV2h tumor: 0.93 ± 0.06
HCA-7 tumors [3]; 60 min p.i., control animals, no HSA, n = 6
  Mean SUV HCA-7 tumor: 0.75 ± 0.12
HCA-7 tumors [3]; 60 min p.i., pre-treated with celecoxib 2 mg i.p. 60 min prior, n = 6
  SUV HCA-7 tumor: 0.57 ± 0.20
HCA-7 tumors [3]; HCA-7 tumor, 2 h p.i., n = 3
  SUV2h tumor: 1.09 ± 0.13
HCA-7 tumors [3]; HCA-7 tumor, 4 h p.i., […] HSA added, n = 7
  SUV4h tumor: 1.19 ± 0.13
HCA-7 tumors [3]; muscle as reference tissue, 60 min p.i., no HSA, n = 6
  SUV muscle: 0.50 ± 0.11
HCA-7 tumors [3]; muscle, 60 min p.i., […] HSA added
  SUV60min muscle: 0.61 ± 0.14
HCA-7 tumors [3]; muscle, 4 h p.i., […] HSA added, n = 7
  SUV4h muscle: 0.53 ± 0.11

## Cc1ccc(-c2cc(C(F)(F)F)nn2-c2ccc(S(N)(=O)=O)cc2)cc1 [celecoxib, reference compound]
HCA-7 tumors [1]
  Blocking of [^18F]Pyricoxib tumor uptake (biodistribution studies): 50%
HCA-7 tumors [1]; listed as Celecoxib
  Blocking of [^18F]Pyricoxib tumor uptake (biodistribution studies): 51%
[4]
  Affinity for carbonic anhydrase: low nanomolar affinity

## CS(=O)(=O)c1ccc(C2=C(c3ccccc3)C(=O)OC2)cc1 [rofecoxib, 4-(4′-methylsulfonylphenyl)-3-phenyl-2-(5H)-furanone]
HCA-7 cells
  Blocking of [^18F]Pyricoxib uptake: blocked uptake of [^18F]Pyricoxib in HCA-7 cells in a concentration-dependent manner
COX-2
  IC50: 18 to 26 nM
